Results reported in patent US20140073801A1, “PYRROLIDINE DERIVATIVES AS SELECTIVE GLYCOSIDASE INHIBITORS AND USES THEREOF” (Summit Corporation Plc, priority 2011, published 2014).

Experiments:
[1] = biological target: T1, human OGA (Homo sapiens, UniProt O60502); experiment: Determination of IC50 values for inhibition of human OGA; type: biochemical
T1 construct: made in house
T1 sequence (O60502 1-916): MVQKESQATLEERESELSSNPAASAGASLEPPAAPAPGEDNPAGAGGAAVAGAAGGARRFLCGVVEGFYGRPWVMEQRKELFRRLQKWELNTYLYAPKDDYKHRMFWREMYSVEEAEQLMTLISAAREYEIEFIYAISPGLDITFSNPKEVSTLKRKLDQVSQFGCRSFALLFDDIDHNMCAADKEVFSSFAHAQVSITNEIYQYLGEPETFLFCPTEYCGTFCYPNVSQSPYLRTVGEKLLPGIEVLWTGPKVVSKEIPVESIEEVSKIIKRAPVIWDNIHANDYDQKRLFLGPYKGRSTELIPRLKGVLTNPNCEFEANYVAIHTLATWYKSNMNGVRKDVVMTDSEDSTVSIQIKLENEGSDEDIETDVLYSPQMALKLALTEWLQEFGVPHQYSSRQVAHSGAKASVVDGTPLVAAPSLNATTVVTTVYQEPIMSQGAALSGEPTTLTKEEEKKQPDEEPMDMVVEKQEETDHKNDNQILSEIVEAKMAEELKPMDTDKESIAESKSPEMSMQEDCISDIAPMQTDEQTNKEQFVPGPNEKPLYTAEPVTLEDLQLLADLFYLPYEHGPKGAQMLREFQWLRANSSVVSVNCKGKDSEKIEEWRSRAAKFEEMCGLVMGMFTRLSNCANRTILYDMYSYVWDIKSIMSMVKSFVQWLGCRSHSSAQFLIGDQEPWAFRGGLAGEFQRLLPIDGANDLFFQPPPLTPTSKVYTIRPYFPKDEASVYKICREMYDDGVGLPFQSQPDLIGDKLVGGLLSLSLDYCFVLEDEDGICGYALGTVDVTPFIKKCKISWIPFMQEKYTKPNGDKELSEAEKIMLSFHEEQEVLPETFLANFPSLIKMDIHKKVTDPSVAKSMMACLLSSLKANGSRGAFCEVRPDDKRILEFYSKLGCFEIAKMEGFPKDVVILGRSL
Procedure: Inhibitors identified from the screen described in Example 1 were evaluated for IC50 using a procedure adapted from Biochem. J. 2009, 420, 221-227. IC50 determination was carried out using a range of inhibitor concentrations from 300 μM to 0.003 μM or 100 μM to 0.001 μM. IC50 values were calculated using XLFit 4.

[2] = system: human β-hexosaminidase [human placenta] (HexA/B); experiment: Determination of IC50 values for inhibition of human β-hexosaminidase; type: biochemical; conditions: ratio
Procedure, shortened: (§1)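 Inhibitor titrated from 300 μM to 0.003 μM or 100 μM to 0.001 μM. IC50 values come from curve fits, and selectivity is IC50(β-hexosaminidase)/IC50(human OGA).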

[3] = biological target: T2, human β-hexosaminidase [human placenta] (HexA/B); experiment: as above; type: biochemical; conditions: human β-hexosaminidase, human placenta; room temperature, thirty minutes
T2 construct: other: human β-hexosaminidase, human placenta; room temperature, thirty minutes
Procedure, shortened: as §1

[4] = biological target: T1, human OGA; experiment: Determination of Ki values for inhibition of human OGA (4MU-GlcNAc substrate); type: biochemical; conditions: 2 nM human OGA, McIlvaine buffer pH 7.4, one hour
Procedure: Enzymatic reactions were carried out in McIlvaine buffer (0.2M Na2PO4, 0.1M citric acid; pH 7.4) using 2 nM human OGA and 4MU-GlcNAc as substrate in the presence of inhibitor. For the Ki of AXX inhibitor concentrations were 0, 20, 40, 80, 160 and 320 nM [for the Ki determination of other compounds either the same concentrations or similar concentrations were used] and 4MU-GlcNAc concentrations were 50, 100, 200, 400, 800, 1600, and 3200 μM. Reactions were left for one hour. […] Modes of inhibition were determined by Lineweaver-Burke analysis and Ki values were determined using GraphPad 5 Prism non-linear regression analysis.

[5] = system: O-GlcNAc modified proteins in PC-12 cells or SH-SY5Y cells; experiment: Western blot analyses of O-GlcNAc modified proteins in cells; type: cell-based; conditions: for EC50: western blot, cells dosed 4 hours at 37° C., cell line not given
Procedure: PC-12 cells or SH-SY5Y cells were dosed with the test compound or vehicle control at 37° C. for 4 hours. Once the incubation was completed the media was removed and cells were lysed. Extracted protein was then used for Western blot analysis using standard molecular biology techniques. The resulting membrane was probed with antibodies specific for tau phosphorylation sites (pSer396, pSer422, pThr231, pSer262) or with antibodies specific for O-GlcNAcylation sites (RL-2 or CTD110.6). The primary antibodies were visualised using appropriate secondary conjugated with the fluorophores Alexa 532 or Alexa 488. Actin was visualised using a FITC conjugated primary antibody. Relative quantification was measured in relation to the actin signal using Image lab software (BRL). Marked increases in O-GlcNAcylated proteins within the cells were observed as compared to controls when cells were dosed with test compound.

[6] = biological target: T3, human OGA (hOGA) (Homo sapiens, UniProt O60502); experiment: Screening of inhibitor library against human OGA (single point, triplicate); type: biochemical; conditions: 100 μM inhibitor concentration
T3 construct: made in house
T3 sequence (O60502 1-916): T1 sequence (O60502 1-916)
Procedure: Expressed and purified human OGA (hOGA) was screened against a library of compounds (compounds stored in 100% DMSO at a concentration of 10 mM) according to a procedure modified from that detailed in Biochem. J. 2009, 420, 221-227 and using the reaction reagents set out in the Table (below). The modification to the published protocol was that an emission wavelength of 450 nm was used rather than […]. Assays were run at singlepoint in triplicate. Inhibitors for further evaluation were selected based on an average observed inhibition greater than 50%.

| Compound | IC50 [1] [nM] | Selectivity: IC50(human β-hexosaminidase)/IC50(Human OGA) [2] | IC50 [3] [µM] | Ki [4] [nM] | EC50 [5] [nM] | inhibition at 100 µM [6] [%] | cellular levels of O-GlcNAc modified proteins relative to vehicle (FIG. 2) ([5]; SH-SY5Y cells, 4 hours) | cellular levels of O-GlcNAc modified proteins relative to vehicle (FIG. 1) ([5]; SH-SY5Y cells, 4 hours, varying concentrations) |
| --- | --- | --- | --- | --- | --- | --- | --- | --- |
| CCCCCCCCCN1[C@H](CC(=O)NCCCC)[C@H](O)[C@H](O)[C@H]1CO [Compound A001, N-butyl-2-((2R,3S,4R,5R)-3,4-dihydroxy-5-(hydroxymethyl)-1-nonylpyrrolidin-2-yl)acetamide] | 58000 | >5 | > 300 |  |  | 89.6 |  |  |
| CNC(=O)C[C@@H]1[C@H](O)[C@H](O)[C@@H](CO)N1CCCCCNS(=O)(=O)c1ccc(-c2ccccc2)cc1 [Compound A066, 2-((2R,3S,4R,5R)-1-(5-([1,1′-biphenyl]-4-ylsulfonamido)pentyl)-3,4-dihydroxy-5-(hydroxymethyl)pyrrolidin-2-yl)-N-methylacetamide] | < 3 | >3633 | 10.9 | 3 | 20 |  |  |  |
| CCCCCCN1[C@H](CC(=O)NC)[C@H](O)[C@H](O)[C@H]1CO [Compound A012, 2-((2R,3S,4R,5R)-1-hexyl-3,4-dihydroxy-5-(hydroxymethyl)pyrrolidin-2-yl)-N-methylacetamide] | 49 | >6085 | > 300 | 70 | 656 |  | increase | increase |
| CCCNC(=O)C[C@@H]1[C@H](O)[C@H](O)[C@@H](CO)N1CCCCc1ccccc1 [Compound A022, 2-((2R,3S,4R,5R)-3,4-dihydroxy-5-(hydroxymethyl)-1-(4-phenylbutyl)pyrrolidin-2-yl)-N-propylacetamide] | 11 | >28571 | > 300 | 72 | 1230 |  |  |  |
| CNC(=O)C[C@@H]1[C@H](O)[C@H](O)[C@@H](CO)N1CCCc1ccccc1 [Compound A016, 2-((2R,3S,4R,5R)-3,4-dihydroxy-5-(hydroxymethyl)-1-(3-phenylpropyl)pyrrolidin-2-yl)-N-methylacetamide] | < 3 | >18000 | 54 | 11 | 255 |  | increase |  |

The remaining compounds from weak to strong by IC50 [1], led by results:

| IC50 [1] [nM] | Selectivity: IC50(human β-hexosaminidase)/IC50(Human OGA) [2] | IC50 [3] [µM] | Ki [4] [nM] | EC50 [5] [nM] | inhibition at 100 µM [6] [%] | Compound | cellular levels of O-GlcNAc modified proteins relative to vehicle (FIG. 2) ([5]; SH-SY5Y cells, 4 hours) | cellular levels of O-GlcNAc modified proteins relative to vehicle (FIG. 1) ([5]; SH-SY5Y cells, 4 hours, varying concentrations) |
| --- | --- | --- | --- | --- | --- | --- | --- | --- |
| 75000 | >4 | > 300 |  |  | 52.8 | CCCCNC(=O)C[C@H]1N[C@H](CO)[C@@H](O)[C@H]1O [Compound A002, N-butyl-2-((2R,3S,4R,5R)-3,4-dihydroxy-5-(hydroxymethyl)pyrrolidin-2-yl)acetamide] |  |  |
| 74600 | >4 | > 300 |  |  | 82.8 | CCCCNC(=O)C[C@@H]1[C@H](O)[C@H](O)[C@@H](CO)N1CCCCCCCCCO [Compound A003, N-butyl-2-((2R,3S,4R,5R)-3,4-dihydroxy-5-(hydroxymethyl)-1-(9-hydroxynonyl)pyrrolidin-2-yl)acetamide] |  |  |
| 11 | >27272 | > 300 | 167 | 263 |  | CCNC(=O)C[C@@H]1[C@@H](O)[C@H](O)[C@@H](CO)N1CCCc1ccc(OC)cc1 [Compound A060, 2-((2R,3R,4R,5R)-3,4-dihydroxy-5-(hydroxymethyl)-1-(3-(4-methoxyphenyl)propyl)pyrrolidin-2-yl)-N-ethylacetamide] |  |  |
| 8 | >37037 | > 300 | 41 | 604 |  | CNC(=O)C[C@@H]1[C@H](O)[C@H](O)[C@@H](CO)N1CCCCC(C)C [Compound A021, 2-((2R,3S,4R,5R)-3,4-dihydroxy-5-(hydroxymethyl)-1-(5-methylhexyl)pyrrolidin-2-yl)-N-methylacetamide] | increase |  |
| 3.7 | >65405 | 242 | 64 |  |  | CCNC(=O)C[C@@H]1[C@@H](O)[C@H](O)[C@@H](CO)N1CCC(c1ccccc1)c1ccccc1 [Compound A068, 2-((2R,3R,4R,5R)-1-(3,3-diphenylpropyl)-3,4-dihydroxy-5-(hydroxymethyl)pyrrolidin-2-yl)-N-ethylacetamide] |  |  |
